Measured values reported in US10828301B2, “2,4-pyrimidinediamine compounds and their uses” (Rigel Pharmaceuticals, Inc, priority 2002, dated 2020).

What was measured:
[1] = system: cultured human mast cells (CHMC); assay: CHMC low cell density IgE activation: tryptase and LTC4 assays; format: cell-based; conditions: Homo sapiens, Mast cell, Low Density CHMC, anti-IgE activation, tryptase readout; read-out: CHMC anti-IgE Tryptase
In short: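 Degranulation measured after 30 min anti-IgE challenge at 37° C of CHMC plated at 1000-1500 cells/well following 1 h preincubation. Readouts: LTC4 by ELISA on donor-specific diluted supernatants, and tryptase activity from a 30 min room-temperature substrate reaction.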

[2] = system: cultured human mast cells (CHMC); assay: CHMC high cell density IgE activation: degranulation (hexos, tryptase, histamine), leukotriene (LTC4) and cytokine (TNFalpha, IL-13) assays; format: cell-based; conditions: anti-IgE activation
In short: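 IgE-sensitized CHMC at 1-2×10^6 cells/ml in MT buffer were pretreated with compound for 1 h at 37 °C (0.5% DMSO final), then stimulated with anti-IgE for 1 h. Tryptase was measured in 1:500-diluted supernatant. Pellets were re-incubated for 7 h with compound in CM media, and supernatants were assayed by ELISA.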

[3] = system: basophils in whole human peripheral blood; assay: Basophil IgE activation: histamine release assay; format: cell-based; conditions: Homo sapiens, anti-IgE activation
Method: (§1) The basophil activation assay was carried out using whole human peripheral blood from donors allergic to dust mites with the majority of the red blood cells removed by dextran sedimentation. Human peripheral blood was mixed 1:1 with 3% dextran T500 and RBCs were allowed to settle for 20-25 min. The upper fraction was diluted with 3 volumes of D-PBS and cells were spun down for 10 min at 1500 rpm, RT. Supernatant was aspirated and cells were washed in an equal volume MT-buffer. Finally, cells were resuspended in MT-buffer containing 0.5% DMSO in the original blood volume. 80 uL cells were mixed with 20 uL compound in the presence of 0.5% DMSO, in triplicate, in a V-bottom 96-well tissue culture plate. A dose range of 8 compound concentrations was tested resulting in a 10-point dose response curve including maximum (stimulated) and minimum (unstimulated) response. […] The cells were stimulated for 30 minutes at 37° C., 5% CO2. The plate was spun for 10 min at 1500 rpm at room temperature and 80 uL the supernatant was harvested for histamine content analysis using the histamine ELISA kit supplied by Immunotech. The ELISA was performed according to supplier's instructions.

[4] = system: basophils in whole human peripheral blood; assay: Basophil dustmite activation: histamine release assay; format: cell-based; conditions: read-out: Basophils Dust mite Histmine IC50
Method: as §1, with “The plate was spun for 10 min at 1500 rpm at room temperature and 80 uL the supernatant was harvested for histamine content analysis using the histamine ELISA kit supplied by Immunotech.” left out

[5] = system: cultured human mast cells (CHMC); assay: CHMC low cell density ionomycin activation: tryptase assay; format: cell-based; conditions: Homo sapiens, Mast cell, Low Density CHMC, ionomycin activation, tryptase readout; read-out: CHMC Ionomycin Tryptase
[6] = system: basophils in whole human peripheral blood; assay: Basophil ionomycin activation: histamine release assay; format: cell-based; conditions: Homo sapiens
Method: Assays for ionomycin-induced basophil cell degranulation were carried out as described for the Basophil IgE or Dustmite Activation Assay (Section 6.4.6, supra), with the exception that following incubation with compound, cells were stimulated with 20 μl of 2 μM ionomycin.

[7] = in vitro chromosomal aberration assay; format: cell-based
[8] = format: in vivo; conditions: rat, oral doses of 50, 150 and 300 mg/kg given for 32 days
[9] = Oral bioavailability / pharmacokinetics in rats; format: in vivo; conditions: rat, in vivo
Method: Over 50 2,4-pyrimidinediamine compounds of the invention were tested for oral bioavailability. For the study, compounds were dissolved in various vehicles (e.g. PEG 400 solution and CMC suspension) for intravenous and oral dosing in the rats. Following administration of the drug, plasma samples were obtained and extracted. The plasma concentrations of the compounds were determined by high performance liquid chromatography/tandem mass spectrometry (LC/MS/MS) methods. Pharmacokinetic analyses were performed based on the plasma concentration data. The pharmacokinetic parameters of interest include Clearance (CL), Volume of distribution at steady-state (Vss), terminal half-life (t1/2), and oral bioavailability (% F).

Jurkat cells = assay: Jurkat toxicity: Cell Titer Glo assay; format: cell-based; conditions: Homo sapiens, 18 hours
Method: Seed 50 μl cells (1×10^6/ml) into each well containing 50 μl compound. […] Shake plates for 1 minute to mix cells and compound. Incubate plates at 37° C. […] Next day, harvest 50 μl cells from each well, add to 50 μl Cell Titer Glo reagent ([…]). Shake plates for 1 minute. Read on luminometer.

B-cell line BJAB = assay: BJAB toxicity: Cell Titer Glo assay; format: cell-based; conditions: Homo sapiens, 18 hours
Method: Seed 50 μl cells (1×10^6/ml) into each well containing 50 μl compound. The final vehicle concentration is 0.5% DMSO, 1.5% MeOH. Shake plates for 1 minute to mix cells and compound. Incubate plates at 37° C. (5% CO2) for 18 hours. Next day, harvest 50 μl cells from each well, add to 50 μl Cell Titer Glo reagent ([…]). Shake plates for 1 minute. Read on luminometer.

[10] = IL-13, read-out: CHMC high density IL-13
[11] = TNF-alpha, read-out: CHMC high density TNF-alpha
[12] = hexosaminidase release, read-out: CHMC high density hexos
[13] = histamine release, read-out: CHMC high density histamine
[14] = tryptase release, read-out: CHMC high density tryptase
[15] = LTC4, read-out: CHMC high density LTC4

Row | SMILES | IC50 [1] [nM] | IC50 [2, 10] [nM] | IC50 [2, 11] [nM] | IC50 [2, 12] [nM] | IC50 [2, 13] [nM] | IC50 [2, 14] [nM] | IC50 [3] [nM] | IC50 [4] [nM] | IC50 [5] [nM] | IC50 [6] [nM] | IC50 [2, 15] [nM] | clastogenic potential [7] | tolerability [8] | metabolic stability in pharmacokinetics studies [9] | IC50 (Jurkat cells) [nM] | IC50 (B-cell line BJAB) [nM]
1 | O=C(NCCO)c1cc2cc(Nc3ncc(F)c(Nc4cccc(O)c4)n3)ccc2o1 [Compound R926497, 5-Fluoro-N4-(3-hydroxyphenyl)-N2-[2-(N-2-hydroxyethylamino)carbonylbenzofuran-5-yl]-2,4-pyrimidinediamine] | 138 | > 10000 | 1880 | 1110 | 1330 | 1230 | 270 | 205 | > 10000 | > 10000 | – | – | – | – | – | –
2 | Nc1cccc(Nc2ncc(F)c(Nc3cccc(N)c3)n2)c1 [Compound R921302, N2,N4-Bis(3-aminophenyl)-5-fluoro-2,4-pyrimidinediamine] | – | 1670 | 1170 | 682 | 1590 | 795 | 190 | – | – | > 10000 | 514 | not clastogenic | well tolerated | most metabolically stable compound | – | –
3 | OCCOc1cccc(Nc2ncc(F)c(Nc3cccc(OCCO)c3)n2)c1 [Compound R935075, N2,N4-Bis[3-(2-hydroxyethoxy)phenyl]-5-fluoro-2,4-pyrimidinediamine] | 930 | – | > 2000 | 647 | – | 1210 | – | – | > 10000 | – | < 220 | – | – | – | > 4330 | > 4330
4 | Cc1cc(Nc2ncc(F)c(Nc3cccc(O)c3)n2)cc(Cl)c1O [Compound R940233, N2-(3-Chloro-4-hydroxy-5-methylphenyl)-5-fluoro-N4-(3-hydroxyphenyl)-2,4-pyrimidinediamine] | 132 | 1780 | 2250 | 577 | 586 | 642 | – | – | > 10000 | – | 118 | – | – | – | > 4330 | > 4330
